In PMC7395068, “The evolution of strategies to minimise the risk of human drug-induced liver injury (DILI) in drug discovery and development” (Archives of Toxicology, 2020):
Where two headings read alike, the source gives them in different places.

What was measured:
[1] = Plasma free fraction (fu) and unbound Cmax (Cmax,u); type: in vitro ADME, human; conditions: unbound plasma Cmax
[2] = system: HepG2; design: method as in Albrecht 2019; conditions: In vitro Assay; ref Albrecht 2019; cited from earlier work
[3] = cited from earlier work
[4] = system: HepG2 cells; conditions: cited from earlier work
[5] = system: HepG2 cells; conditions: cited from earlier work; for Cluser analysis / Structural based (HCI): In vitro Assay, ref Persson 2013
[6] = system: THLE or HepG2 cells, isolated mitochondria, BSEP; conditions: cited from earlier work; for Partition Hybrid HRM Score / Ro2 Hybrid HRM Score: In vitro Assay, ref Aleo 2019; for Partition Hybrid HRM Score ≥4, Aleo (2019) / Partition Hybrid HRM Score ≥8, Aleo (2019) / Rule of Two hybrid HRM Score ≥3, Aleo (2019) / Rule of Two hybrid HRM Score ≥8, Aleo (2019): Modeled in vitro assays (cytotoxicity, mitochondrial dysfunction, BSEP), ref Aleo et al. 2019
[7] = system: PHH; conditions: cited from earlier work; for PHH/100uM, Proctor (2017): 2D PHH, ATP, IC50 threshold 100 µM, ref Proctor et al. 2017; for PHH ATP <100uM: In vitro Assay, ref Proctor 2017
[8] = system: hLiMTs; conditions: cited from earlier work; for hLiMTs ATP <100uM: In vitro Assay, ref Proctor 2017; for hLiMTs/100uM, Proctor (2017): ATP, IC50 threshold 100 µM, ref Proctor et al. 2017
[9] = system: PHH spheroids; conditions: cited from earlier work
[10] = system: HepG2 C3A spheroid, BSEP, Glu/Gal in HepG2 cells, bioactivation; conditions: cited from earlier work
[11] = read-out: Human plasma Cmax; total plasma Cmax.tot, median of 9 literature references; cited from earlier work
[12] = plasma free fraction; cited from earlier work
[13] = cited from earlier work; remark: listed apart in the source
[14] = system: PHH; conditions: In vitro Assay; ref Albrecht 2019; cited from earlier work
[15] = system: THLE-Null and THLE-3A4 cells; conditions: In vitro Assay; ref Gustafsson 2014; cited from earlier work
[16] = system: isolated mouse liver mitochondria; conditions: In vitro Assay; ref Porceddu 2012; cited from earlier work
[17] = ref Chen 2011; cited from earlier work
[18] = system: rBsep; conditions: In vitro Assay; ref Dawson 2012; cited from earlier work
[19] = system: hLiMTs; assay: Combined HCI (HCS) and cellular ATP 3D assay in hLiMTs; conditions: for AC50 / minimal effective concentration: Homo sapiens; for hLiMTs <25x Avg Cmax ATP / hLiMTs <100x Avg Cmaxu ATP: ATP endpoint; for hLiMTs <25x Avg Cmax ATP / hLiMTs <25x Avg Cmax HCS / hLiMTs <25x Avg Cmax All: cut-off <25x Avg Cmax; for hLiMTs <100x Avg Cmaxu ATP / hLiMTs <100x Avg Cmaxu HCS / hLiMTs <100x Avg Cmaxu All: cut-off <100x Avg Cmaxu; for hLiMTs <25x Avg Cmax HCS / hLiMTs <100x Avg Cmaxu HCS: HCS endpoints; for hLiMTs <25x Avg Cmax All: all endpoints (ATP and HCS); for hLiMTs Cmax max All / hLiMTs Cmax min All / hLiMTs <10 uM All / hLiMTs <100x Avg Cmaxu All: all endpoints; for hLiMTs Cmax max All: Cmax max used; for hLiMTs Cmax min All: Cmax min used; for hLiMTs <10 uM All: cut-off <10 uM
[20] = system: HepaRG spheroids; assay: Combined HCI (HCS) and cellular ATP 3D assay in HepaRG spheroids; conditions: for HepaRG <25x Avg Cmax ATP / HepaRG <100x Avg Cmaxu ATP: ATP endpoint; for HepaRG <25x Avg Cmax ATP / HepaRG <25x Avg Cmax HCS / HepaRG <25x Avg Cmax All: cut-off <25x Avg Cmax; for HepaRG <100x Avg Cmaxu ATP / HepaRG <100x Avg Cmaxu HCS / HepaRG <100x Avg Cmaxu All: cut-off <100x Avg Cmaxu; for HepaRG <25x Avg Cmax HCS / HepaRG <100x Avg Cmaxu HCS: HCS endpoints; for HepaRG <25x Avg Cmax All: all endpoints (ATP and HCS); for HepaRG Cmax max All / HepaRG Cmax min All / HepaRG <10 uM All / HepaRG <100x Avg Cmaxu All: all endpoints; for HepaRG Cmax max All: Cmax max used; for HepaRG Cmax min All: Cmax min used; for HepaRG <10 uM All: cut-off <10 uM; for AC50 / minimal effective concentration: Homo sapiens; for HepaRG <25x Avg Cmax ATP / HepaRG <100x Avg Cmaxu ATP / HepaRG <25x Avg Cmax HCS / HepaRG <100x Avg Cmaxu HCS / HepaRG <25x Avg Cmax All / HepaRG Cmax max All / HepaRG Cmax min All / HepaRG <10 uM All / HepaRG <100x Avg Cmaxu All / AC50 / minimal effective concentration: HepaRG
[21] = system: HepG2 cells, primary human hepatocytes; conditions: In vitro Assay; ref Garside 2014; cited from earlier work
[22] = Microtissue model structural based (HCI), combined HCS and ATP, MEC < 25 × Cmax.tot cut-off

O=C1CN(/N=C/c2ccc([N+](=O)[O-])o2)C(=O)N1 [nitrofurantoin, reference compound]
Human plasma Cmax,u [1]: 6.508 µM | Cytotoxicity HepG2 48 hrs [2]: +VE | DILI severity category (Chen et al. [2016]) ([3]; LTKB DILIrank category, ref Chen et al. 2016): Most | DILI severity category (Chen 2016) ([3]; human DILI classification, LTKB DILIrank, ref Chen et al. 2016): Most | DILI severity category ([3]; human DILI severity, ref Chen et al.): Most | DILI +VE (5-8), DILI -VE (-4) ([3]; ref Chen 2016): +VE | DILI severity category ([3]; ref Chen 2016): vMost-DILI-Concern | Structural based (HCI) ([4]; In vitro Assay, ref O'Brien 2006): +VE | DILI in vitro assay prediction, O'Brien (2006) ([4]; Structural based (HCI), HepG2, ref O'Brien et al. 2006): +VE (lowest HCI endpoint IC50 (or in the absence of dose–response < 100 µM) < 30 × total human plasma exposure levels (Cmax.tot)) | Cluser analysis [5]: -VE | Structural based (HCI) [5]: +VE | DILI in vitro assay prediction, Persson (2013) ([5]; Structural based (HCI), HepG2, ref Persson et al. 2013): -VE | Partition Hybrid HRM Score [6]: +VE | Ro2 Hybrid HRM Score [6]: +VE | Partition Hybrid HRM Score ≥4, Aleo (2019) [6]: +VE (Partition Hybrid HRM Score ≥4) | Partition Hybrid HRM Score ≥8, Aleo (2019) [6]: -VE | Rule of Two hybrid HRM Score ≥3, Aleo (2019) [6]: +VE (Rule of Two hybrid HRM Score ≥3) | Rule of Two hybrid HRM Score ≥8, Aleo (2019) [6]: -VE | PHH/100uM, Proctor (2017) [7]: +VE (IC50 threshold of 100 µM) | PHH ATP <100uM [7]: +VE (IC50 threshold of 100 µM) | hLiMTs ATP <100uM [8]: +VE (IC50 threshold of 100 µM) | hLiMTs/100uM, Proctor (2017) [8]: +VE (IC50 threshold of 100 µM) | hLiMTs ATP <20 x Cmax ([9]; In vitro Assay, ref Vorrink 2018): +VE (IC20 < 20 × Cmax.tot cut-off) | DILI in vitro assay prediction, Vorrink (2018) ([9]; PHH spheroids, ATP, 14 days, IC20 < 20 × Cmax.tot, ref Vorrink et al. 2018): +VE (IC20 < 20 × Cmax.tot cut-off) | Bayesian Machine Learning DILI prediction, Williams (2019) ([10]; Bayesian modeling, ref Williams et al. 2019): +VE | Bayesian Machine Learning ([10]; In vitro Assay, ref Williams 2019): +VE | Cmax [11]: 21 µM | fu [12]: 0.310 | Assigned DILI category ([13]; Chen et al. 2016 or literature alignment, ref Chen et al. 2016): 3 | In vivo DILI ([13]; […]): +VE | In vivo DILI ([13]; ref Albrecht 2019): +VE | In vivo DILI ([13]; ref Aleo 2019): +VE | In vivo DILI ([13]; ref Dawson 2012): +VE | In vivo DILI ([13]; ref Garside 2014): +VE | In vivo DILI ([13]; ref Gustafsson 2014): +VE | In vivo DILI ([13]; ref O'Brien 2006): +VE | In vivo DILI ([13]; ref Persson 2013): +VE | In vivo DILI ([13]; ref Porceddu 2012): +VE | In vivo DILI ([13]; ref Proctor 2017): +VE | In vivo DILI ([13]; ref Vorrink 2018): +VE | In vivo DILI ([13]; ref Williams 2019): +VE | Cytotoxicity PHH 48 hrs [14]: +VE | THLE-Null [15]: -VE | in vitro data EC2<=1x Cmax [16]: +VE | in vitro data EC20<=2uM [16]: -VE | DILI Score (FDA) (1-8) [17]: 8 | Inhibition of rBsep cutoff<1& cmax u>.2 [18]: -VE | Inhibition of rBsep cutoff<3 [18]: -VE | AC50 ([19]; read-out: ATP endpoint AC50): 11.7 µM | minimal effective concentration ([19]; read-out: ATP endpoint MEC): 3.21 µM | AC50 ([19]; read-out: HCS endpoint AC50): 73.6 µM | minimal effective concentration ([19]; read-out: HCS endpoint MEC): 19.4 µM | DILI prediction hLiMTs (HCS-MEC) [19, 22]: +VE (MEC < 25 × Cmax.tot cut-off) | hLiMTs <25x Avg Cmax ATP [19]: +ve | hLiMTs <100x Avg Cmaxu ATP [19]: +ve (<100x Avg Cmaxu) | hLiMTs <25x Avg Cmax HCS [19]: +ve | hLiMTs <100x Avg Cmaxu HCS [19]: +ve (<100x Avg Cmaxu) | hLiMTs <25x Avg Cmax All [19]: +ve | hLiMTs Cmax max All [19]: +ve | hLiMTs Cmax min All [19]: +ve | hLiMTs <10 uM All [19]: +ve (<10 uM) | hLiMTs <100x Avg Cmaxu All [19]: +ve (<100x Avg Cmaxu) | HepaRG <25x Avg Cmax ATP [20]: +ve | HepaRG <100x Avg Cmaxu ATP [20]: +ve (<100x Avg Cmaxu) | HepaRG <25x Avg Cmax HCS [20]: +ve | HepaRG <100x Avg Cmaxu HCS [20]: +ve (<100x Avg Cmaxu) | HepaRG <25x Avg Cmax All [20]: +ve | HepaRG Cmax max All [20]: +ve | HepaRG Cmax min All [20]: +ve | HepaRG <10 uM All [20]: +ve (<10 uM) | HepaRG <100x Avg Cmaxu All [20]: +ve (<100x Avg Cmaxu) | AC50 ([20]; read-out: ATP endpoint AC50): 11.6 µM | minimal effective concentration ([20]; read-out: ATP endpoint MEC): 9.27 µM | AC50 ([20]; read-out: HCS endpoint AC50): 17.5 µM | minimal effective concentration ([20]; read-out: HCS endpoint MEC): 5.59 µM | DILI prediction HepaRG spheroids (HCS-MEC) [20, 22]: +VE (MEC < 25 × Cmax.tot cut-off)

CCCC(CCC)C(=O)O [valproic acid]
Human plasma Cmax,u [1]: 55.474 µM | Cytotoxicity HepG2 48 hrs [2]: +VE | Cluser analysis [5]: -VE | Structural based (HCI) [5]: -VE | Partition Hybrid HRM Score [6]: +VE | Ro2 Hybrid HRM Score [6]: +VE | Partition Hybrid HRM Score ≥4, Aleo (2019) [6]: +VE (Partition Hybrid HRM Score ≥4) | Partition Hybrid HRM Score ≥8, Aleo (2019) [6]: +VE (Partition Hybrid HRM Score ≥8) | Rule of Two hybrid HRM Score ≥3, Aleo (2019) [6]: +VE (Rule of Two hybrid HRM Score ≥3) | Rule of Two hybrid HRM Score ≥8, Aleo (2019) [6]: -VE | PHH/100uM, Proctor (2017) [7]: -VE | PHH ATP <100uM [7]: -VE | hLiMTs ATP <100uM [8]: -VE | hLiMTs/100uM, Proctor (2017) [8]: -VE | Cmax [11]: 693 µM | fu [12]: 0.080 | Cytotoxicity PHH 48 hrs [14]: +VE | THLE-Null [15]: -VE | Cluster 1-6 +VE Assay [21]: +VE | in vitro data EC2<=1x Cmax [16]: +VE | in vitro data EC20<=2uM [16]: -VE | AC50 ([19]; read-out: ATP endpoint AC50): 7080 µM | minimal effective concentration ([19]; read-out: ATP endpoint MEC): 6220 µM | minimal effective concentration ([19]; read-out: HCS endpoint MEC): 1600 µM | hLiMTs <25x Avg Cmax ATP [19]: +ve | hLiMTs <100x Avg Cmaxu ATP [19]: -ve | hLiMTs <25x Avg Cmax HCS [19]: +ve | hLiMTs <100x Avg Cmaxu HCS [19]: +ve (<100x Avg Cmaxu) | hLiMTs <25x Avg Cmax All [19]: +ve | hLiMTs Cmax max All [19]: +ve | hLiMTs Cmax min All [19]: +ve | hLiMTs <10 uM All [19]: -ve | hLiMTs <100x Avg Cmaxu All [19]: +ve (<100x Avg Cmaxu) | HepaRG <25x Avg Cmax ATP [20]: +ve | HepaRG <100x Avg Cmaxu ATP [20]: +ve (<100x Avg Cmaxu) | HepaRG <25x Avg Cmax HCS [20]: +ve | HepaRG <100x Avg Cmaxu HCS [20]: +ve (<100x Avg Cmaxu) | HepaRG <25x Avg Cmax All [20]: +ve | HepaRG Cmax max All [20]: +ve | HepaRG Cmax min All [20]: +ve | HepaRG <10 uM All [20]: -ve | HepaRG <100x Avg Cmaxu All [20]: +ve (<100x Avg Cmaxu) | AC50 ([20]; read-out: ATP endpoint AC50): 41.3 µM | minimal effective concentration ([20]; read-out: ATP endpoint MEC): 12.3 µM | AC50 ([20]; read-out: HCS endpoint AC50): 148 µM | minimal effective concentration ([20]; read-out: HCS endpoint MEC): 45.6 µM
